Measurements as given in patent publication US6121323A, “Bishydroxyureas” (3M Innovative Properties Company, priority 1997, dated 2000).

Tests used:
[1] = test system: Leukotriene B4 production in whole human blood; experiment: In vitro human whole blood Leukotriene B4 inhibition; assay type: cell-based; details: A23187 stimulated, read-out: IC50 (concentration producing 50% inhibition of LTB4 production)
Procedure: IN VITRO HUMAN WHOLE BLOOD LEUKOTRIENE B4 INHIBITION
The test method described below measures the ability of compounds to inhibit the production of Leukotriene B4 in whole human blood.
Whole human blood is collected by venipuncture into a 60 cc syringe containing 100 units of heparin.
compounds are disolved in dimethyl sulfoxide. Compounds are tested at concentrations of 100, 33, 11, 3.7, 1.2 and 0.41 μM. Each concentration is tested in duplicate.
Aliquots (1 μL) of compound solution are added to 1 mL polyethylene tubes followed by the addition of 500 μL portion of heparinized blood. The tubes are mixed thoroughly then allowed to preincubate at ambient temperature for 15 minutes. A 25 μL portion of 1 mM Calcium Ionophore A23187 in dimethyl sulfoxide/Tris buffer is added to the tubes. The tubes are mixed thoroughly then incubated at 37° C. for 30 minutes.
The tubes are centrifuged at 2000 rpm for 10 minutes. 100 μL portions of plasma are transferred to 1 mL polyethylene tubes containing 400 μL portions of methanol. The tubes are vortexed then frozen at -20° C. overnight.
The tubes are centrifuged for 10 minutes then 100 μL portions of methanol supernatant are transferred to a 96 well microtiter plate. 10 μL portions are transferred from this plate to a 96 well assay plate. Methanol dilutions of LTB4 standard curve are added to the assay plate. 10 μL portions of blank methanol/plasma supernatant are added to each standard curve well. The assay plate is vacuum dried at ambient temperature. The radioimmunoassay buffer is added, the plate is bath-sonicated for 5 minutes then assayed according to the manufacturer's instructions (Advanced Magnetics; Cambridge, Mass.). Inhibition of LTB4 production is calculated as the ratio of the amount of LTB4 formed in the presence (LTB4 +cpd) and absence (LTB4 no cpd) of compound according the equation below. [formula] IC50 values (concentration of compound producing a 50% inhibition of LTB4 production) are calculated by linear regression analysis of percentage inhibition versus log compound concentration plots.

[2] = test system: Leukotriene B4 production in rat blood; experiment: Rat ex vivo Leukotriene B4 inhibition; assay type: in vivo; details: 2 hours post dose, ex vivo A23187 challenge; for inhibition in vivo at 50 mg/kg: 50 mg/Kg oral
Procedure: RAT EX VIVO LEUKOTRIENE B4 INHIBITION
The test method described below measures the ability of a compound when administrated orally to rats to inhibit the production of Leukotriene B4 in their blood which is drawn and challenged.
Rats (CD, male, non-fasted, 250 g) are lightly anesthetized with carbon dioxide and an approximately 0.75 mL sample of whole blood is obtained via cardiac puncture. The sample is dispensed into 12×75 mm polypropylene tubes containing 8-10 μL of 10,000 units/mL heparin, mixed and then maintained on ice. The rats are allowed to recover approximately one hour then dosed orally with compound dissolved in PEG 400 at a 5 mL/Kg volume. Five (5) rats are utilized per group. Two (2) hours post dose the rats are again anesthetized with carbon dioxide and the blood sampled again via cardiac puncture.
Duplicate 200 μL portions of blood are added to 1.0 mL polypropylene tubes. A 10 μL portion of 1 mM A23 187 Calcium Ionophore in dimethyl sulfoxide/Tris buffer is added to each tube. The tubes are gently vortexed then incubated in a 37° C. water bath for 30 minutes. The tubes are then centrifuged at 4000 rpm for 10 minutes. 50 μL portions of plasma are transferred to 1.0 mL tubes containing 200 μL of methanol. The tubes are vortexed then placed in the freezer overnight.
The tubes are removed from the freezer then centrifuged at 4000 rpm for 10 minutes. 20 μL portions of the methanol/plasma supernatant and 10 μl methanol dilutions of LTB4 standard are transferred to 96 well v-bottom microtiter plates. The plates are vacuum dried at 40° C. A 40 μL portion of LTB4 radioimmunoassay buffer is added to each well. The plate is bath sonicated for 5 minutes then assayed according to the manufacturer's instructions (Advanced Magnetics; Cambridge, Mass.). Percent inhibition values are obtained by comparing the level of LTB4 in the post-dose samples to the level in the pre-dose samples according to the equation below. [formula]

[3] = test system: Leukotriene C4 production in mouse peritoneal macrophages; experiment: In vitro mouse peritoneal macrophage Leukotriene C4 inhibition; assay type: cell-based; details: zymosan stimulated, read-out: Percent Inhibition
Procedure: IN VITRO MOUSE PERITONEAL MACROPHAGE LEUKOTRIENE C4 INHIBITION
The test described below measures the ability of compounds to inhibit the production of Leukotriene C4 in mouse peritoneal macrophages.
Mice (female, CD-1, weighing 25 g) are euthanized by exposure to carbon dioxide. The pertoneal cavity is exposed by peeling back the abdominal skin. A 5 mL portion of media (M199 containing 1% fetal bovine serum, 100 units/mL of penicillin, 100 μg/mL streptomycin, 20 units/mL of heparin and no glutamine) is injected into the exposed peritoneal cavity of each mouse. The lavage fluid is removed and pooled to yield proximately 1×10^6 macrophages/mL. A 2 mL portion of lavage fluid is added to each well of a 24 well sterile multidish and the marcophages are allowed to adhere to the plate for 2 hours at 37° C. in a 5% carbon dioxide atmosphere. The media is removed and each well is washed with 2 mL of phosphate buffered saline (PBS). A 1 mL portion of media, without heparin, but containing 5 μCi/mL of 3H-myoinositol is added to each well and the plates are incubated overnight at 37° C. in a 5% carbon dioxide atmosphere. The media is removed and the cells are washed twice with 2 mL portions of PBS. A 1 mL portion of Puck's saline formulation A containing 1 mM calcium chloride, 1 mM magnesium chloride and 10 mM lithium chloride is added to each well. (The Puck's formulation is made first as a 10× solution which contains 4 g of potassium chloride, 80 g of sodium chloride and 10 g of glucose per liter. The Puck's saline formulation A is made using 10 mL of the 10× Puck's formulation, 0.47 mL of 7.5% sodium bicarbonate and 2 mL of 1M N-2-hydroxyethylpiperazine-N'-2-ethanesulfonic acid per 100 mL.)
Compounds are dissolved in dimethyl sulfoxide. Compounds are tested at concentrations of 10, 1 and 0.1 μM. Each concentration is tested in duplicate.
A 1 μL portion of compound solution or vehicle (DMSO) is added to each well and the plates are incubated for 15 minutes at 37° C. in a 5% carbon dioxide atmosphere. Zymosan is then added to provide a final concentration of 50 μg/mL in each well and the plate is incubated for 1 to 2 hours at 37° C. in a 5% carbon dioxide atmosphere.
Following incubation 200 μL portions of media are transferred to 12×75 mm tubes. The tubes are either assayed immediately or stored at -20° C. until they can be assayed.
The media is assayed for the presence of Leukotriene C4 by radioimmunoassay which is performed according to the manufacturer's instructions (Advanced Magnetics; Cambridge, Mass.). Inhibition of LTC4 production is calculated as the ratio of the amount of LTC4 formed in the presence (LTC4 +cpd) and absence (LTC4 no cpd)of compound according to the equation below. [formula] IC50 values (concentration of compound producing a 50% inhibition of LTC4 production) are calculated by linear regression analysis of percentage inhibition versus log compound concentration plots.

Compound | IC50 [1] [nM] | inhibition in vivo at 10 mg/kg ([2]; 10 mg/Kg oral) [%] | inhibition in vivo at 50 mg/kg [2] [%] | inhibition at 0.1 µM [3] [%] | inhibition at 1 µM [3] [%] | inhibition at 10 µM [3] [%]
CN(O)C(=O)Nc1ccc(Cc2ccc(NC(=O)N(C)O)cc2)cc1 [Example 1, 4,4'-Methylenebis(1-hydroxy-1-methyl-3-phenylurea)] | 550 | 16 | 93 | 61 | 95 | 100
CC(C)N(O)C(=O)Nc1ccc(Cc2ccc(NC(=O)N(O)C(C)C)cc2)cc1 [Example 2, 4,4'-Methylenebis(1-hydroxy-1-isopropyl-3-phenylurea)] | 1700 |  | 34 | 32 | 55 | 54
O=C(Nc1ccc(Cc2ccc(NC(=O)N(O)Cc3ccccc3)cc2)cc1)N(O)Cc1ccccc1 [Example 3, 4,4'-Methylenebis(1-hydroxy-1-benzyl-3-phenylurea)] | 320 |  | 6 | 25 | 56 | 74
